Results on seven compounds are retold here after article PMC4675551, “Protein Kinase C-Independent Inhibition of Organic Cation Transporter 1 Activity by the Bisindolylmaleimide Ro 31-8220” (PLoS ONE, 2015).

Assay type in all cases: cell-based
Assay [1] concerns the target T1, organic cation transporter 1 (OCT1) (Homo sapiens, UniProt O15245).
T1 construct: gene SLC22A1; NM_003057 overexpressed in HEK293 cells
T1 sequence (O15245 1-554): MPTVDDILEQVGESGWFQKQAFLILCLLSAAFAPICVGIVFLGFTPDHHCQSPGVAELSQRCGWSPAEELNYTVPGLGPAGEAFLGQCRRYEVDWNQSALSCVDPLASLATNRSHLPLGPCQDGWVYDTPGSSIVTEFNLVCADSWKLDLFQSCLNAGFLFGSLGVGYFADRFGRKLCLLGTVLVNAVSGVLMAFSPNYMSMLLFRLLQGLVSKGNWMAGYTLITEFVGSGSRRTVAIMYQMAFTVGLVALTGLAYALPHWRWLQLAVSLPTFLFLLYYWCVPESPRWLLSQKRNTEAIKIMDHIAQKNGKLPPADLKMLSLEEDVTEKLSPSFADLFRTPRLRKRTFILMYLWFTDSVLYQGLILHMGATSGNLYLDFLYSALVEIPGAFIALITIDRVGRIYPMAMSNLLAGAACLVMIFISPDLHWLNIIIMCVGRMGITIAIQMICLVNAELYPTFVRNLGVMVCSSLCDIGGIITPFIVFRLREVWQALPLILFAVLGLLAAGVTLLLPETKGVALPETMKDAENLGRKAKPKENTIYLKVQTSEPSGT
Briefly: inhibition of […]-TEA uptake in HEK-OCT1 cells, […], more than […] inhibition. The note with it: read-out: % inhibition at 5 μM.

Assay [2] has as its target T1, organic cation transporter 1 (OCT1). Briefly: cis-inhibition of […]-TEA uptake in HEK-OCT1 cells.
Assay [3] has as its target T2, organic cation transporter 2 (OCT2) (Homo sapiens, UniProt O15244).
T2 construct: gene SLC22A2; NM_003058 overexpressed in HEK293 cells
T2 sequence (O15244 1-555): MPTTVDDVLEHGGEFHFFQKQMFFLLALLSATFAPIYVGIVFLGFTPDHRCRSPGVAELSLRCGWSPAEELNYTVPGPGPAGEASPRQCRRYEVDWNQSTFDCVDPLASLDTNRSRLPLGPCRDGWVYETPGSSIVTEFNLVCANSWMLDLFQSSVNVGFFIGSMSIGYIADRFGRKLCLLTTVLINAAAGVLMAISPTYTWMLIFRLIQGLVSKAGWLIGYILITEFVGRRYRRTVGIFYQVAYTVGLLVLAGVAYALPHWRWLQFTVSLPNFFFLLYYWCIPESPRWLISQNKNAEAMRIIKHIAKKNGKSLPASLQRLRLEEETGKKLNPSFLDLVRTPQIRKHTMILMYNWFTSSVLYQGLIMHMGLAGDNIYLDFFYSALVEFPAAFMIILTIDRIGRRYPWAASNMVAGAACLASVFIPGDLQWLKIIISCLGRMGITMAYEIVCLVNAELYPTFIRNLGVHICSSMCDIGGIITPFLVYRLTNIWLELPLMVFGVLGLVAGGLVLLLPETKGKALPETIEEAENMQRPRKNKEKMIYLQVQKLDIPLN
The assay can be described thus: cis-stimulation of […]-TEA uptake in HEK-OCT2 cells.

In assay [4] the target is T3, multidrug and toxin extrusion protein 1 (MATE1) (Homo sapiens, UniProt Q96FL8).
T3 construct: gene SLC47A1; NM_018242 overexpressed in HEK293 cells
T3 sequence (Q96FL8 1-570): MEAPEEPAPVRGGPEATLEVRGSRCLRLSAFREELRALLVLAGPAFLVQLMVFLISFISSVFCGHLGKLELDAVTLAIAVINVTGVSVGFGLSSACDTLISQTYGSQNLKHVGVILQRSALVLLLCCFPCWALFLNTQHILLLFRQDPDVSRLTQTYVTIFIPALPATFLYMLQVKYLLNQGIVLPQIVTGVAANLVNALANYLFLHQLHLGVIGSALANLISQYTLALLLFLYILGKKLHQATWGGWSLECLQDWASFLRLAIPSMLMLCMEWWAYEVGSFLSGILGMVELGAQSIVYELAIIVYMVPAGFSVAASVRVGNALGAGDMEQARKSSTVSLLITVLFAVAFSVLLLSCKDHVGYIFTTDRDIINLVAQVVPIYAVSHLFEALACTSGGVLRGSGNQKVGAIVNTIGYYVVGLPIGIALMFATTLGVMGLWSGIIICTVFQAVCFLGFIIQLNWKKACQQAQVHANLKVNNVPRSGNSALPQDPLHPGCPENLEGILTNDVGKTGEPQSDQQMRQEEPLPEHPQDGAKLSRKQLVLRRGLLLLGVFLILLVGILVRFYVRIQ
The assay can be described thus: inhibition of […]-TEA uptake in HEK-MATE1 cells.

The target of the next assay is T4, MATE2-K (Homo sapiens, UniProt Q86VL8).
T4 construct: gene SLC47A2; NM_152908 overexpressed in HEK293 cells
Briefly: inhibition of […]-TEA uptake in HEK-MATE2-K cells.

Assay [5] has as its target T1, organic cation transporter 1 (OCT1). The assay can be described thus: inhibition of TEA and DAPI uptake in HEK-OCT1 cells at […].

T4 sequence (Q86VL8 1-566 isoform Q86VL8-3): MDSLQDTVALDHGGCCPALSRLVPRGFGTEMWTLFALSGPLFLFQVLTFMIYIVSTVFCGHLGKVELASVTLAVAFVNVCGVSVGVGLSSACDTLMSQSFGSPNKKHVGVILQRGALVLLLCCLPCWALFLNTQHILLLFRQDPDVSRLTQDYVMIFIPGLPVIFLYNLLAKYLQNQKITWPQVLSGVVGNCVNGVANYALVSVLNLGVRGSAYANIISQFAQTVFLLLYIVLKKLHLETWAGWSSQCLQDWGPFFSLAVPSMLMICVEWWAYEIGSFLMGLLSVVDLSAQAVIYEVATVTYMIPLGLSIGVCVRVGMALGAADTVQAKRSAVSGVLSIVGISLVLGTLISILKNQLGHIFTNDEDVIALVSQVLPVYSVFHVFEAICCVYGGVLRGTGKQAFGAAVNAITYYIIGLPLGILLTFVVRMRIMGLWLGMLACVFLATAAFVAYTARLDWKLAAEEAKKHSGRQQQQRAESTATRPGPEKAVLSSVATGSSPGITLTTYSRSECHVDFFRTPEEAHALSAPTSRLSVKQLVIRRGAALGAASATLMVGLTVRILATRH

What is called inhibition is how much of the control response was suppressed. In the case of `CN1CCCC1CCn1cc(C2=C(c3c[nH]c4ccccc34)C(=O)NC2=O)c2ccccc21` (stereo not shown) [BIM-II], the inhibition at 5 µM in assay [1] is greater than 50%. Same read-out and setting: the figure for `CN(C)CCCn1cc(C2=C(c3c[nH]c4ccccc34)C(=O)NC2=O)c2ccccc21` [BIM-I] is greater than 50%. Usually IC50 stands for the point on the concentration scale where inhibition reaches its midpoint. The term EC50 denotes the concentration giving half of the maximal effect. Low values mean a more potent agent, high ones a less potent agent. `Cn1cc(C2=C(c3cn(CCCSC(=N)N)c4ccccc34)C(=O)NC2=O)c2ccccc21` [BIM-IX, Ro 31–8220]: the IC50 in assay [2] worked out at 180 ± 50 nM; in assay [4] it was 39 ± 6 nM; against MATE2-K, 190 ± 70 nM. The compound also showed an EC50 in assay [3] of 400 ± 10 nM. In the case of `CN(C)C[C@@H]1CCn2cc(c3ccccc32)C2=C(C(=O)NC2=O)c2cn(c3ccccc23)CCO1` [LY 333531], the inhibition at 5 µM in assay [1] is greater than 50%. The same measure, in the same setting: the value for `Cn1cc(C2=C(c3cn(CCCN)c4ccccc34)C(=O)NC2=O)c2ccccc21` [BIM-VIII] was greater than 50%.

Regarding `COc1ccc(CCN(C)CCCC(C#N)(c2ccc(OC)c(OC)c2)C(C)C)cc1OC` (stereo not shown) [verapamil], in assay [5], the “inhibition of TEA and DAPI uptake in HEK-OCT1 cells at 50 μM” value is on record as “the reference OCT1 inhibitor verapamil similarly inhibited DAPI uptake”. Turning to `NCCCn1cc(C2=C(c3c[nH]c4ccccc34)C(=O)NC2=O)c2ccccc21` [BIM-III], the inhibition at 5 µM in assay [1] is greater than 50%.
